Results reported in ChEMBL document CHEMBL1641575, “Conventional and microwave assisted synthesis of 2-oxo-4-substituted aryl-azetidine derivatives of benzotriazole: a new class of biological compounds” (Bioorg Med Chem Lett, 2011).
Converted amounts (≈) assume the structure as drawn.

How the values were obtained:
[1] = system: Mycobacterium tuberculosis; experiment: Antitubercular activity against Mycobacterium tuberculosis H37Rv assessed as inhibition of colonies after 30 days by agar microdilution method; assay type: functional
Staphylococcus aureus = experiment: Antibacterial activity against Staphylococcus aureus assessed as inhibition of visible growth after 48 hrs by agar dilution method; assay type: functional
Escherichia coli = experiment: Antibacterial activity against Escherichia coli assessed as inhibition of visible growth after 48 hrs by agar dilution method; assay type: functional
Candida albicans = experiment: Antifungal activity against Candida albicans assessed as inhibition of visible growth after 48 hrs by agar dilution method; assay type: functional
Streptococcus pneumoniae = experiment: Antibacterial activity against Streptococcus pneumoniae assessed as inhibition of visible growth after 48 hrs by agar dilution method; assay type: functional
Aspergillus fumigatus = experiment: Antifungal activity against Aspergillus fumigatus assessed as inhibition of visible growth after 48 hrs by agar dilution method; assay type: functional
Aspergillus niger = experiment: Antifungal activity against Aspergillus niger assessed as inhibition of visible growth after 48 hrs by agar dilution method; assay type: functional
[2] = Cytotoxicity against african green monkey Vero C1008 cells at 0.01 to 0.1 ug/ml by neutral red uptake assay; assay type: cell-based; conditions: chlorocebus sabaeus

| Structure (SMILES) | MIC [1] | MIC (Staphylococcus aureus) | MIC (Escherichia coli) | MIC (Candida albicans) | MIC (Streptococcus pneumoniae) | MIC (Aspergillus fumigatus) | MIC (Aspergillus niger) | Activity [2] |
| --- | --- | --- | --- | --- | --- | --- | --- | --- |
| O=C1C(Cl)C(c2ccccc2[N+](=O)[O-])N1/N=C/CCn1nnc2ccccc21 (configuration not stated) | > 3.12 mg/L | 0.5 mg/L (≈ 1.25 µM) | 0.5 mg/L (≈ 1.25 µM) | 0.1 mg/L (≈ 0.251 µM) | 0.1 mg/L (≈ 0.251 µM) | 0.1 mg/L (≈ 0.251 µM) | 0.1 mg/L (≈ 0.251 µM) |  |
| O=C1C(Cl)C(c2ccccc2)N1/N=C/CCn1nnc2ccccc21 (configuration not stated) | > 12.5 mg/L | 1 mg/L (≈ 2.83 µM) | 1 mg/L (≈ 2.83 µM) | 1 mg/L (≈ 2.83 µM) | 0.5 mg/L (≈ 1.41 µM) | 1 mg/L (≈ 2.83 µM) | 1 mg/L (≈ 2.83 µM) | Non-toxic |
| O=C1C(Cl)C(c2cccc(Br)c2)N1/N=C/CCn1nnc2ccccc21 (configuration not stated) | 6.25 mg/L (≈ 14.4 µM) | 0.1 mg/L (≈ 0.231 µM) | 0.1 mg/L (≈ 0.231 µM) | 0.5 mg/L (≈ 1.16 µM) | 0.1 mg/L (≈ 0.231 µM) | 0.1 mg/L (≈ 0.231 µM) | 0.1 mg/L (≈ 0.231 µM) |  |
| O=C1C(Cl)C(c2ccccc2Br)N1/N=C/CCn1nnc2ccccc21 (configuration not stated) | > 3.12 mg/L | 0.1 mg/L (≈ 0.231 µM) | 0.1 mg/L (≈ 0.231 µM) | 1 mg/L (≈ 2.31 µM) | 0.5 mg/L (≈ 1.16 µM) | 0.5 mg/L (≈ 1.16 µM) | 0.5 mg/L (≈ 1.16 µM) |  |
| CC[C@@H](CO)NCCN[C@@H](CC)CO [ETHAMBUTOL] | 1 mg/L (≈ 4.89 µM) |  |  |  |  |  |  |  |
| O=C1C(Cl)C(c2ccc(Cl)cc2)N1/N=C/CCn1nnc2ccccc21 (configuration not stated) | > 3.12 mg/L | 0.1 mg/L (≈ 0.258 µM) | 0.1 mg/L (≈ 0.258 µM) | 0.5 mg/L (≈ 1.29 µM) | 0.5 mg/L (≈ 1.29 µM) | 0.5 mg/L (≈ 1.29 µM) | 1 mg/L (≈ 2.58 µM) |  |
| Clc1ccc(COC(Cn2ccnc2)c2ccc(Cl)cc2Cl)c(Cl)c1 (configuration not stated) [MICONAZOLE] |  |  |  | 0.1 mg/L (≈ 0.24 µM) |  | 0.1 mg/L (≈ 0.24 µM) | 0.1 mg/L (≈ 0.24 µM) |  |
| O=C1C(Cl)C(c2ccc([N+](=O)[O-])cc2)N1/N=C/CCn1nnc2ccccc21 (configuration not stated) | > 1.56 mg/L | 0.1 mg/L (≈ 0.251 µM) | 0.5 mg/L (≈ 1.25 µM) | 0.1 mg/L (≈ 0.251 µM) | 0.5 mg/L (≈ 1.25 µM) | 0.5 mg/L (≈ 1.25 µM) | 0.5 mg/L (≈ 1.25 µM) |  |
| COc1ccc(C2C(Cl)C(=O)N2/N=C/CCn2nnc3ccccc32)cc1 (configuration not stated) | > 12.5 mg/L | 1 mg/L (≈ 2.61 µM) | 1 mg/L (≈ 2.61 µM) | 0.1 mg/L (≈ 0.261 µM) | 0.5 mg/L (≈ 1.3 µM) | 0.1 mg/L (≈ 0.261 µM) | 0.1 mg/L (≈ 0.261 µM) |  |
| COc1ccccc1C1C(Cl)C(=O)N1/N=C/CCn1nnc2ccccc21 (configuration not stated) | > 6.25 mg/L | 1 mg/L (≈ 2.61 µM) | 2 mg/L (≈ 5.21 µM) | 0.1 mg/L (≈ 0.261 µM) | 0.5 mg/L (≈ 1.3 µM) | 0.1 mg/L (≈ 0.261 µM) | 0.1 mg/L (≈ 0.261 µM) |  |
| O=C1C(Cl)C(c2ccccc2Cl)N1/N=C/CCn1nnc2ccccc21 (configuration not stated) | 3.12 mg/L (≈ 8.05 µM) | 0.5 mg/L (≈ 1.29 µM) | 0.1 mg/L (≈ 0.258 µM) | 1 mg/L (≈ 2.58 µM) | 0.1 mg/L (≈ 0.258 µM) | 0.5 mg/L (≈ 1.29 µM) | 0.5 mg/L (≈ 1.29 µM) |  |
| CC1COc2c(N3CCN(C)CC3)c(F)cc3c(=O)c(C(=O)O)cn1c23 (configuration not stated) [OFLOXACIN] |  | 0.1 mg/L (≈ 0.277 µM) | 0.1 mg/L (≈ 0.277 µM) |  | 0.1 mg/L (≈ 0.277 µM) |  |  |  |
| CN[C@@H]1[C@H](O[C@H]2[C@H](O[C@H]3[C@H](O)[C@@H](O)[C@H](N=C(N)N)[C@@H](O)[C@@H]3N=C(N)N)O[C@@H](C)[C@]2(O)C=O)O[C@@H](CO)[C@H](O)[C@H]1O [STREPTOMYCIN] | 4 mg/L (≈ 6.88 µM) |  |  |  |  |  |  |  |
